Test results taken from PubChem BioAssay (NCI).
“And” between values parts separate entries of the source, which are not always exact repeats. Identical values can stand only once.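 Briefly, cells in 96-well plates were exposed to five compound concentrations for 48 h, and endpoints were estimated by linear interpolation. Here, GI50 denotes the concentration required for 50% inhibition of growth. The concentration for full growth arrest is given as TGI.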

Columns and labels:
Test in all cases: inhibition of tumour cell growth, NCI panel, 48 h
CAKI-1 renal = tested on: CAKI-1 renal
HL-60(TB) leukemia = tested on: HL-60(TB) leukemia
OVCAR-8 ovarian = tested on: OVCAR-8 ovarian
SK-MEL-2 melanoma = tested on: SK-MEL-2 melanoma
SK-OV-3 ovarian = tested on: SK-OV-3 ovarian
SN12C renal = tested on: SN12C renal
SNB-19 CNS = tested on: SNB-19 CNS
SNB-78 CNS = tested on: SNB-78 CNS
MDA-N = tested on: MDA-N
SR leukemia = tested on: SR leukemia

| SMILES | TGI (CAKI-1 renal) | TGI (HL-60(TB) leukemia) | TGI (OVCAR-8 ovarian) | TGI (SK-MEL-2 melanoma) | TGI (SK-OV-3 ovarian) [µM] | TGI (SN12C renal) | TGI (SNB-19 CNS) | TGI (SNB-78 CNS) [µM] | TGI (MDA-N) | TGI (SR leukemia) | GI50 (CAKI-1 renal) [µM] | GI50 (HL-60(TB) leukemia) [µM] | GI50 (OVCAR-8 ovarian) [µM] | GI50 (SK-MEL-2 melanoma) [µM] | GI50 (SK-OV-3 ovarian) [µM] | GI50 (SN12C renal) [µM] | GI50 (SNB-19 CNS) [µM] | GI50 (SR leukemia) [µM] | GI50 (MDA-N) [µM] |
| --- | --- | --- | --- | --- | --- | --- | --- | --- | --- | --- | --- | --- | --- | --- | --- | --- | --- | --- | --- |
| CC(=O)O[C@H]1CC[C@@]2(C)C(=CC[C@@H]3C2CC[C@]2(C)Nc4nc5ccccc5cc4CC32)C1 (stereo not given in full) | 18.4 µM | 17.7 µM | 10.9 µM | 31.7 µM | 8.4 | 20.1 µM | 7.89 µM | 21.1 |  |  |  |  |  |  |  |  |  |  |  |
| Cc1cc(N2CCN(C)CC2)n2nc(-c3ccc(Cl)cc3)nc2n1 | > 100 µM | > 100 µM | > 100 µM | > 100 µM | > 100 | > 100 µM | > 100 µM |  | > 100 µM | > 100 µM |  |  |  |  |  |  |  |  |  |
| C=CCc1cc(OC)c2c(c1)C(OC)CC(c1ccc(OC)c(OC)c1)O2 (stereo not given) | > 100 µM | > 100 µM | > 100 µM | > 100 µM | > 100 | > 100 µM | > 100 µM | > 100 |  |  |  |  |  |  |  |  |  |  |  |
| CN(C)C(=S)SCC(=O)Nc1ccccc1 | > 100 µM | > 100 µM | > 100 µM | > 100 µM | > 100 | > 100 µM |  |  | > 100 µM | > 100 µM |  |  |  |  |  |  |  |  |  |
| CCOC(=O)COc1ccc2c(C)cc(=O)oc2c1 | > 100 µM | > 100 µM | > 100 µM | > 100 µM |  | > 100 µM | > 100 µM |  | > 100 µM | > 100 µM |  |  |  |  |  |  |  |  |  |
| O=S(=O)(c1cnccc1N1CCN(CCO)CC1)N1CCCC1 | > 100 µM | > 100 µM | > 100 µM | > 100 µM | > 100 | > 100 µM | > 100 µM |  | > 100 µM | > 100 µM |  |  |  |  |  |  |  |  |  |
| C=C1C(=O)OC2/C=C(/C)C(OC(C)=O)C/C=C(\C)C(OC(=O)C3(C)OC3C)C(O)C12 (stereo not given) | > 100 µM | > 100 µM | > 100 µM | > 100 µM | > 100 | > 100 µM | > 100 µM |  | > 100 µM | > 100 µM |  |  |  |  |  |  |  |  |  |
| O=C1/C=C/[C@@H](O)[C@@H]2C[C@@H](O)C[C@H]2/C=C/CCC[C@H](C(F)(F)F)O1 | 27.4 µM | 0.605 µM | 9.03 µM | 0.78 µM | > 100 | 13.8 µM | > 100 µM |  |  | 0.591 µM | 0.178 | 0.243 | 0.254 | 0.244 | 16.4 | 0.779 | 6.98 | 0.199 |  |
| CO[C@H]1C[C@@H]2CC[C@@H](C)[C@@](O)(O2)C(=O)C(=O)N2CCCC[C@H]2C(=O)O[C@H]([C@H](C)C[C@@H]2CC[C@@H](OCCO)[C@H](OC)C2)CC(=O)[C@H](C)C=C(C)[C@@H](O)[C@@H](OC)C(=O)[C@H](C)C[C@H](C)/C=C/C=C/C=C1C | 21 µM | 38.4 µM | 29.5 µM | 21.4 µM | 20.5 | 31.1 µM | 19.5 µM |  |  | 10.2 µM |  | 8.63 |  |  | < 0.01 | 1.82 |  | < 0.01 |  |
| CC(=O)[O][Hg][c]1c(C)c(C)cc(C)c1C | 5.4 µM | 2.61 µM | 3.23 µM | 3.3 µM | 6.96 | 4.48 µM | 3.76 µM |  | 2.08 µM | 2.21 µM | 2.03 | 0.704 | 1.77 | 1.53 | 3.63 | 1.94 | 1.7 | 0.0629 | 0.83 |
| CCOC(=O)C1(C)CCCCC(=O)N1 (stereo not given) | > 100 µM | > 100 µM | > 100 µM |  | > 100 | > 100 µM | > 100 µM | > 100 |  |  |  |  |  |  |  |  |  |  |  |
| O=[N+]([O-])c1cccc(C2CC(c3ccccc3)=Nc3ccccc3S2)c1 (stereo not given) | > 100 µM | 84.7 µM | 39.6 µM | 43.6 µM | > 100 | 26.8 µM | 44.8 µM |  |  | > 100 µM | 21.8 | 26.5 | 15.5 | 21 | 34.9 | 13.4 | 15.4 | 3.4 |  |
| CC(=O)C1=C(O)C2C3c4c[nH]c5cccc(c45)CC3C(C)(C)N2C1=O (stereo not given) | > 100 µM | 9.85 µM |  | 44.6 µM | > 100 |  | > 100 µM | > 100 |  |  |  |  |  |  |  |  |  |  |  |
| O=C1c2ccccc2C(=O)c2c(OCCOCCO)cccc21 | 74.2 µM | > 100 µM | > 100 µM | > 100 µM | > 100 | 8.08 µM | > 100 µM |  |  | > 100 µM |  |  |  |  |  |  |  |  |  |
| CCCCCCCCCCCCCC[C@@H](O)[C@H]1CC[C@H]([C@H]2CC[C@H]([C@H](O)CCCCCC[C@@H](O)CC3=C[C@H](C)OC3=O)O2)O1 | 5.01 µM and > 25 µM | 7.14 µM and > 25 µM | 3.94 µM and > 25 µM | 3.86 µM and > 25 µM | > 25 | 6.47 µM and > 25 µM | 7.71 µM and > 25 µM |  | 6.48 µM and > 25 µM | 6.05 µM and > 25 µM | 1.75 | > 25 | > 25 | 1.52 |  | > 25 | 1.75 | 5.88 | > 25 |
| COC(=O)CSSCc1ccc([N+](=O)[O-])cc1 | 8.09 µM | 76.2 µM | 82.1 µM | 42.4 µM | 46.8 | 34.1 µM | 77.2 µM |  | 34.7 µM | 70.2 µM |  |  |  |  |  |  |  |  |  |
| CN(Cc1cnc2nc(N)nc(N)c2n1)c1ccc(C(=O)NC(CCC(=O)O)C(=O)O)cc1Br (stereo not given) |  | > 100 µM | > 100 µM | > 100 µM | > 100 | > 100 µM | > 100 µM |  |  | 8.49 µM | < 0.01 | < 0.01 | < 0.01 | < 0.01 | 0.047 | < 0.01 | < 0.01 | < 0.01 |  |
| COc1cc(-c2nn(-c3cccc(NC(=O)c4ccc(Cl)c(C(F)(F)F)c4)c3)cc2-c2ccncc2)ccc1Cl | > 32.5 µM | > 32.5 µM | > 32.5 µM | 10.1 µM | > 32.5 | > 32.5 µM | > 32.5 µM |  |  | > 10.2 µM | 2.34 | 2.56 | 3.35 | 1.42 | 7.53 | 7.15 | 7.64 | 0.809 |  |
| COc1ccc(N=N/C(C(=O)C(F)(F)F)=C(\O)c2ccc(Cl)cc2)cc1 | 25.5 µM | 39.4 µM | 70.3 µM | 8.68 µM | 35.3 | > 100 µM | > 100 µM |  |  | 24.7 µM | 3.97 | 7.11 | 10.7 | 2.78 | 14.4 | 16.6 | 16.5 | 4.26 |  |
